Molecular target: CA II (Homo sapiens, UniProt P00918)
Test: esterase assay, p-nitrophenyl acetate hydrolysis
Format: biochemical

| IC50 [nM] | SMILES |
| --- | --- |
| > 2000 | O=C1NS(=O)(=O)c2cc(-n3cc(CO[C@@H]4O[C@H](CO)[C@@H](O)[C@H](O)[C@H]4O)nn3)ccc21 [1a, saccharin-glycoconjugate 1a] |
| > 2000 | O=C1NS(=O)(=O)c2cc(-n3cc(CO[C@@H]4O[C@H](CO)[C@H](O)[C@H](O)[C@H]4O)nn3)ccc21 [1b, saccharin-glycoconjugate 1b] |
| > 2000 | O=C1NS(=O)(=O)c2cc(-n3cc(CCO[C@@H]4O[C@H](CO)[C@H](O)[C@H](O)[C@H]4O)nn3)ccc21 [1c, saccharin-glycoconjugate 1c] |

— article PMC6492551 (Carbohydrate research, 2019)
